Assay results from the NIST ThermoML archive (doi:10.1021/je020107x).
Numbers after ± are expanded uncertainties.

Test: refractive index (Na D-line) (dimensionless)
Settings: 298.15 K; 101.33 kPa; Liquid; Standard Abbe refractometry

SMILES | refractive index
Clc1ccc(Cl)c(Cl)c1 [1,2,4-trichlorobenzene] | 1.522 ± 0.0005
Clc1ccccc1Cl [1,2-dichlorobenzene] | 1.5491 ± 0.0005
Clc1cccc(Cl)c1 [1,3-dichlorobenzene] | 1.5432 ± 0.0005
Clc1ccccc1 [chlorobenzene] | 1.5218 ± 0.0005
CCCCCCCCCCCC [dodecane] | 1.4275 ± 0.0005
CCCCCCCCCCCCCCCC [hexadecane] | 1.4325 ± 0.0005
CCCCCC [hexane] | 1.3728 ± 0.0005
